Laboratory results published in patent US8501816B2, “Antitussive compositions comprising memantine” (Cerecor, Inc., priority 2010, dated 2013).

How the values were obtained:
[1] = tested on: freezing behavior during cued fear conditioning; assay: Cued fear conditioning in mice; type: in vivo
Procedure: The effects of memantine on enhancing cognition were investigated with fear conditioning tests on mice. Specifically, the fear conditioning test exposed mice to a conditioned stimulus (a tone) and an unconditioned stimulus (a mild electric shock). The mice learned to associate the tone with the shock as reflected by freezing. After being adequately conditioned, the mice were administered memantine or a control (vehicle alone). […] Fear Conditioning: Fear conditioning mouse chambers (7''W×7''D×12''H; Coulbourne Instruments, […] Valley, Pa.) were housed in sound attenuating chambers. A camera was mounted on the ceiling of the chamber to capture mouse behavior (FreezeFrame software, Coulbourne Instruments, […] Valley, Pa.); data were analyzed by Freezeview software (Coulbourne Instruments, […] Valley, Pa.). Fear conditioning chambers were calibrated prior to each experiment to ensure that each chamber delivers the same shock intensity. […] Pavlovian fear conditioning refers to the learning of associations between a negative reinforcer (e.g., a mild electric foot shock/s), a novel context (e.g. a context) and/or a specific, neutral, cue (e.g., tone or white noise). To assess contextual and cued (tone) learning and memory, a standardized fear conditioning task developed for the evaluation of memory in rodents was used. Protocol: […] Cue-induced Conditioning Testing: Mice were tested for cued memory 48 hours after training. The cued conditioning test was conducted in an altered context (i.e., a different test chamber). […] Statistical Analysis: Data are represented as the mean and standard error to the mean. Data were analyzed by analysis of variance (ANOVA) followed by Fisher PLSD, or unpaired t-tests, when appropriate to test a planned comparison. An effect was considered significant if p<0.05. Statistical outliers that fell above or below two standard deviations from the mean were removed from the final analysis.

[2] = Pharmacokinetics of memantine after oral or buccal dosing in male beagle dogs (Example 2); type: in vivo, beagle dog; design: Cmax/Dose: unit not given beside the values
Procedure: The pharmacokinetics of memantine were evaluated after buccal administration in male beagle dogs. Memantine was formulated in water, 3.3 mg/mL sodium hydroxide in water, or 7.5 mg/mL sodium carbonate in water. All dogs received a 0.4 mg/kg dose of memantine. Plasma levels of memantine were determined by LC-MS/MS. Pharmacokinetic parameters were determined for the memantine plasma data.
For dosing, dogs were anesthetized with an IV injection of ketamine/diazepam, and maintained by isoflurane intubation during the buccal administration. The dosing solution was pipetted into a circular cylinder to concentrate the dosing solution on one area of the mucosa. At just prior to the 15 minute sample time point, the oral cavity was rinsed with 5 mL of water and dried with gauze Immediately after the rinse, the 15 minute sample was collected.

[3] = cited from earlier work
[4] = tested on: recombinant human histamine receptors; conditions: in vitro; cited from earlier work
[5] = male, beagle, dog, plasma, 0.4 mg/kg, MMT 0.4 mg/kg Buccal + 7.5 mg/ml Na2CO3
[6] = male, beagle, dog, plasma, 0.4 mg/kg, MMT 0.4 mg/kg Buccal, Control (water)

## CC12CC3CC(C)(C1)CC(N)(C3)C2 [Memantine, 3,5-dimethyltricyclo[3.3.1.1^3,7]decan-1-amine]
[1]; memantine 10 mg/kg IP + diphenhydramine 20 mg/kg
  cue-induced fear conditioning, CS phase, vs vehicle-diphenhydramine 20 mg/kg: significantly increased cue-induced fear conditioning
[1]; memantine 20 mg/kg plus diphenhydramine
  post-CS freezing vs vehicle-diphenhydramine: strong trend (p=0.052) toward a significant increase in post-CS freezing
[2]; MMT 0.4 mg/kg Buccal + 3.3 mg/ml NaOH
  Cmax/Dose: 12.9
[2]; MMT 0.4 mg/kg Buccal, Control (water)
  Cmax/Dose: 6.7
[2]; [5]
  AUC(0-inf): 184 ng·h/mL
  Cmax: 54 ng/mL
[2]; [6]
  AUC(0-inf): 125 ng·h/mL
  AUC(0-t): 119 ng·h/mL
[3]; conventional memantine dosage forms
  plasma memantine concentrations at steady state: 70 to 150 ng/mL
[3]; healthy volunteers
  Total renal clearance: approximately 170 mL/min/1.70 m^2
[3]; in vivo
  bound to plasma proteins: about 45%
  mean volume of distribution: about 10 L/kg
[3]; oral, conventional memantine
  bioavailability: > 100%
[4]
  effect at receptors: no effect
